Literature values, collected in patent US20230129262A1, “METHODS AND PHARMACEUTICAL COMPOSITIONS OF THROMBOXANE A2 RECEPTOR ANTAGONIST FOR THE TREATMENT OF COVID-19” (priority 2020, published 2023).
Where two headings read alike, the source gives them in different places.

What was measured:
TP receptor [1] = settings: TP receptor blockade, several cited studies
TP receptors = molecular target: T1, TP receptors (Rattus norvegicus, UniProt P34978); settings: infusion of the TxA2 mimetic, preclinical studies (Bertolino, Valentin et al. 1995)
T1 sequence (P34978 1-341): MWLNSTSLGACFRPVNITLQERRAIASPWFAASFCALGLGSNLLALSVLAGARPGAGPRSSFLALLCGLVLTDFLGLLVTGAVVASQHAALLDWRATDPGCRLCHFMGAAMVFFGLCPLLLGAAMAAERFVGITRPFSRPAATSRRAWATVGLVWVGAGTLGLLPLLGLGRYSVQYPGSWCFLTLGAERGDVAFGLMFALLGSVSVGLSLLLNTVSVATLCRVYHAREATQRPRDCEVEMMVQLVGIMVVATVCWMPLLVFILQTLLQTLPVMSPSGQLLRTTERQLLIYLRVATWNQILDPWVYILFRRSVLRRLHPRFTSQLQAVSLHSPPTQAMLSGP

platelet activation = settings: Tarantino, Amadio et al. 2016
TP receptor [2] = molecular target: T2, TP receptor (Homo sapiens, UniProt P21731); settings: patients with acute lung injury; by selectively relaxing pulmonary veins and decreasing post-capillary resistance (Schuster, Kozlowski et al. 2001)
T2 sequence (P21731 1-343): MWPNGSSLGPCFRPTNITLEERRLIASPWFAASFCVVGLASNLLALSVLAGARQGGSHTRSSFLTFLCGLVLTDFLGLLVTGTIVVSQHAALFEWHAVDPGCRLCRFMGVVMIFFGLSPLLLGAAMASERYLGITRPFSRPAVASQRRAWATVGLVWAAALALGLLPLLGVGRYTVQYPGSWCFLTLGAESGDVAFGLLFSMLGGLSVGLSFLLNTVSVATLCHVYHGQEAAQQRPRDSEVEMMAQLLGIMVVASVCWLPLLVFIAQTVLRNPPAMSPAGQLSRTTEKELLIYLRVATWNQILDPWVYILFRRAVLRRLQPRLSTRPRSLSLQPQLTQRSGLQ

TP receptor [3] = molecular target: T3, TP receptor (Mus musculus, UniProt P30987); settings: model of Duchenne muscular dystrophy (West, Galindo et al. 2019)
T3 sequence (P30987 1-341): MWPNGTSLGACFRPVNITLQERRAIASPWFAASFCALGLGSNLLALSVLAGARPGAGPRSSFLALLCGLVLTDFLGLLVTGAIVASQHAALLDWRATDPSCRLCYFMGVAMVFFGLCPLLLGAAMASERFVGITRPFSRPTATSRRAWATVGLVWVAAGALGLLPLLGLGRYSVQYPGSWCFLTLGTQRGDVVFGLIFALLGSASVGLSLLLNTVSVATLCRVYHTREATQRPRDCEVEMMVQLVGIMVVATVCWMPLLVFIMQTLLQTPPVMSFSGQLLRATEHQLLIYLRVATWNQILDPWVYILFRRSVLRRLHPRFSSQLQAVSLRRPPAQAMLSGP

TP receptor [4] = test system: TP receptor
TP receptor [5] = molecular target: T3, TP receptor; settings: bleomycin model of pulmonary fibrosis (Suzuki, Kropski et al. 2021)
TP receptor [6] = molecular target: T3, TP receptor; settings: chronic hypoxia in mice, potentiated in COX-2 knock-out mice (Cathcart, Tamosiuniene et al. 2008)
TP receptor [7] = molecular target: T3, TP receptor; settings: pressure-overload model of pulmonary arterial hypertension (West, Voss et al. 2016)

For C[C@H](c1ccccc1)[C@@H](O)/C=C/[C@@H]1[C@H](C/C=C\CCCC(=O)O)[C@H]2CC[C@@H]1O2 [SQ28668], the “lung injury-associated pulmonary hypertension, hypoxemia, and pulmonary edema” value (TP receptor [1]) is given as “inhibited”.
In the case of CCCCCCC(=O)NCC(=O)NC[C@H]1[C@@H](C/C=C\CCCC(=O)O)[C@@H]2CC[C@H]1O2 [SQ30741], the “lung injury-associated pulmonary hypertension, hypoxemia, and pulmonary edema” value (TP receptor [1]) is listed as “inhibited”.
In the case of CCCCC[C@H](O)/C=C/[C@@H]1[C@@H](C/C=C\CCCC(=O)O)[C@H]2CO[C@@H]1C2 [U-16,619, 9,11-dideoxy-9α, 11α-methanoepoxy prostaglandin F2α], the “plasma fluid and protein accumulation in the lung” value (TP receptors) is listed as “strongly increased”.
For CC(=O)Oc1ccccc1C(=O)O [aspirin, acetylsalicylic acid], the “platelet activation in venous thrombosis” value (platelet activation) is listed as “prevents”, the mortality (high-dose aspirin (1,000 mg/day), compared to propensity score matched COVID-19 controls (Liu, Huang et al. 2021)) is listed as “reduced” and the “risk of mechanical ventilation, ICU admission, and in-hospital mortality” value (low-dose aspirin use, hospitalized COVID-19 patients (Chow, Khanna et al. 2021)) is listed as “decreased risk”.
In the case of CCCCCNC(=O)c1coc([C@H]2[C@@H](Cc3ccccc3CCC(=O)O)[C@@H]3CC[C@H]2O3)n1 [ifetroban, 3-[2-[[(1S,2R,3S,4R)-3-[4-(pentylcarbamoyl)-1,3-oxazol-2-yl]-7-oxabicyclo[2.2.1]heptan-2-yl]methyl]phenyl]propanoic acid], the pulmonary capillary pressure (TP receptor [2]) is listed as “reduced”, the cardiac function (TP receptor [3]) is listed as “improves” and the right ventricular fibrosis (TP receptor [3]) is listed as “dramatically decreases”. The “arterial and tissue oxygenation” value (TP receptor [4]; compared with septic controls (Quinn and Slotman 1999)) was “significantly increased”, the “systemic and pulmonary vasoconstriction” value (TP receptor [4]; sepsis animal model (Quinn and Slotman 1999)) was “ameliorated” and the “lung injury-associated pulmonary hypertension, hypoxemia, and pulmonary edema” value (TP receptor [1]) was “inhibited”. The development of fibrosis (TP receptor [5]) was “blocked”, the “pulmonary hypertension and pulmonary intravascular thrombosis” value (TP receptor [6]) was “prevented” and the cardiac function (TP receptor [7]) was “improves”. For the same compound, the right ventricular fibrosis (TP receptor [7]) was “dramatically decreases”.
